“And” between values parts separate entries of the source, which are not always exact repeats. Identical values can stand only once.
Experiments:
[1] = rhesus monkey, in vivo; cited from earlier work
[2] = human, in vivo, po
[3] = rat, in vivo; cited from earlier work
[4] = human, in vivo, po; remark: listed apart in the source

COc1cc2c(c3oc(=O)c4c(c13)CCC4=O)[C@@H]1C=CO[C@@H]1O2 [AFB1, aflatoxin B1]
dose eliminated in urine as unbound within the first 24 hours [1]: ~ 30%
dose remaining in the liver [1]: 13.6%
dose remaining in the plasma [1]: 5.8%
AUC_Extrap of AFB1 equivalents in plasma [2]: 50.9 ± 8%
Tmax of AFB1 equivalents in plasma [2]: 1.0 h and ~ 1 h
ka (absorption rate constant) of AFB1 equivalents in plasma [2]: 5.05 ± 1.10 h⁻¹
t1/2α (harmonic mean) of AFB1 equivalents in plasma [2]: 2.86 h
Á (disposition rate constant) of AFB1 equivalents in plasma [2]: 0.24 ± 0.06 h⁻¹
β (disposition rate constant) of AFB1 equivalents in plasma [2]: 0.01 ± 0.003 h⁻¹
in situ absorption rate constant [3]: 5.84 ± 0.05 h⁻¹
AFB1 dose excreted in urine in the first 72 hours [4]: 29.0 ± 2.31% and 34.4 ± 5.60% and 33.3 ± 2.79%

From publication PMC5314947 (Cancer prevention research (Philadelphia, Pa.), 2009)
